± gives the standard deviation of the averaged measurements.
Key:
Test in all cases: level (log10 ratio to DMSO vehicle control); higher = higher biomarker level / cell amount than vehicle control
Conditions in all cases: in DMSO
[1] = compound: FC(F)(F)C(F)(F)C(F)(F)C(F)(F)C(F)(F)C(F)(F)CC1CO1 [3-(Perfluorohexyl)-1,2-epoxypropane]
Method: (§1)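 BioMAP Diversity Plus panel of 12 human primary cell co-culture systems (3C, 4H, LPS, SAg, BT, BF4T, BE3C, CASM3C, HDF3CGF, KF3CT, MyoF, Mphg). Compounds were added 1 h before stimulation and left for 24 h (MyoF 48 h; BT 72 h for soluble read-outs or 6 d for IgG). Biomarkers were read by ELISA, cytotoxicity by SRB, PBMC viability and proliferation by Alamar Blue. Each well value was divided by the mean of 8 DMSO control wells on the same plate and log10 transformed; duplicate blinded samples were tested at 4 concentrations.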

[2] = compound: O=C(O)C(F)(F)C(F)(F)C(F)(F)C(F)(F)C(F)(F)C(F)(F)C(F)(F)C(F)(F)C(F)(F)C(F)F [11-H-Perfluoroundecanoic acid]
Method: as §1

[3] = compound: O=S(=O)(O)C(F)(F)C(F)(F)C(F)(F)C(F)(F)C(F)(F)C(F)(F)C(F)(F)C(F)(F)C(F)(F)C(F)(F)F [Sodium perfluorodecanesulfonate]
Method: as §1

[4] = compound: NC(=O)C(F)(F)C(F)(F)C(F)(F)C(F)F
Method: as §1

[5] = compound: C=C(C)C(=O)OCCC(F)(F)C(F)(F)C(F)(F)C(F)(F)C(F)(F)C(F)(F)F [6:2 Fluorotelomer methacrylate]
Method: as §1

Test System	level (log10) ([1]; 6700 nM)	level (log10) ([1]; 20000 nM)	level (log10) ([1]; 60000 nM)	level (log10) ([2]; 6700 nM)	level (log10) ([2]; 20000 nM)	level (log10) ([3]; 1500 nM)	level (log10) ([3]; 4400 nM)	level (log10) ([3]; 13000 nM)	level (log10) ([3]; 40000 nM)	level (log10) ([4]; 6700 nM)	level (log10) ([4]; 20000 nM)	level (log10) ([4]; 60000 nM)	level (log10) ([5]; 6700 nM)	level (log10) ([5]; 20000 nM)	level (log10) ([5]; 60000 nM)
4H:CD106/VCAM-1	-0.002 ± 0.027	-0.0225 ± 0.00071	-0.0025 ± 0.011	-0.0135 ± 0.016	-0.0015 ± 0.03	-0.018 ± 0.011	-0.0295 ± 0.005	-0.007 ± 0.0085	-0.0615 ± 0.0092	-0.0145 ± 0.005	-0.021 ± 0.0085	-0.007 ± 0.0057	-0.002 ± 0.021	-0.013 ± 0.0099	-0.0045 ± 0.015
CASM3C:LDLR	-0.003 ± 0.02	0.0105 ± 0.012	0.025 ± 0.014	-0.0025 ± 0.005	-0.006 ± 0.0099	0.0155 ± 0.028	-0.015	-0.0425 ± 0.018	-0.0055 ± 0.035	-0.008	-0.006 ± 0.024	0.031 ± 0.042	-0.0185 ± 0.026	-0.001 ± 0.025	-0.016 ± 0.0099
KF3CT:CD54/ICAM-1	0.006 ± 0.0071	0.026	0.0085 ± 0.0092	-0.0285 ± 0.039	0.0945 ± 0.0092	0.0035 ± 0.013	0.018 ± 0.023	0.08 ± 0.013	0.09	-0.0075 ± 0.011	-0.0255 ± 0.005	-0.008 ± 0.0014	0.006 ± 0.016	-0.014 ± 0.031	-0.0075 ± 0.005
4H:CD62P/P-selectin	0.0055 ± 0.016	-0.0015 ± 0.019	0.013 ± 0.017	0.0165 ± 0.0092	0.035 ± 0.031	-0.0165 ± 0.021	0.034 ± 0.018	0.064 ± 0.03	0.08 ± 0.033	-0.017	-0.017 ± 0.031	0.0195 ± 0.029	-0.033 ± 0.072	-0.0065 ± 0.044	-0.01 ± 0.0014
lMphg:CD62E/E-Selectin	-0.0155 ± 0.00071	0.0055 ± 0.016	-0.0045 ± 0.061	-0.025 ± 0.023	-0.028 ± 0.034	-0.011 ± 0.0014	-0.0265 ± 0.028	0.0135 ± 0.018	0.0205 ± 0.021	-0.011 ± 0.038	-0.021 ± 0.076	-0.037 ± 0.078	-0.0005 ± 0.015	-0.003 ± 0.048	-0.0135 ± 0.011
lMphg:M-CSF	-0.01 ± 0.0071	-0.0305 ± 0.0078	-0.0145 ± 0.021	-0.019 ± 0.0071	-0.007 ± 0.018	-0.0215 ± 0.0035	-0.0255 ± 0.03	-0.013 ± 0.021	0.0255 ± 0.028	-0.0135 ± 0.0092	-0.018 ± 0.025	-0.0175 ± 0.015	0.0215 ± 0.0064	-0.016 ± 0.0071	-0.0125 ± 0.025
3C:CD54/ICAM-1	-0.0115 ± 0.00071	-0.0275 ± 0.015	-0.015 ± 0.011	-0.012 ± 0.023	-0.019 ± 0.0014	0.0115 ± 0.005	-0.0015 ± 0.00071	0.0115 ± 0.021	0.0145 ± 0.0078	-0.0095 ± 0.013	-0.0115 ± 0.019	-0.0095 ± 0.025	-0.003 ± 0.0042	-0.014 ± 0.011	0.0025 ± 0.015
BE3C:MMP-1	0.022 ± 0.075	0.0255 ± 0.061	0.0655 ± 0.03	0.068 ± 0.013	-0.132 ± 0.012	-0.0225 ± 0.053	0.0585 ± 0.059	0.239 ± 0.011	0.153 ± 0.0071	0.003 ± 0.054	-0.001 ± 0.0014	0.024 ± 0.0057	0.0525 ± 0.0035	0.046 ± 0.0057	0.0375 ± 0.0078
HDF3CGF:CD54/ICAM-1	-0.01 ± 0.018	-0.0095 ± 0.0092	-0.021 ± 0.034	-0.058 ± 0.0085	-0.0635 ± 0.0035	-0.0145 ± 0.021	-0.031 ± 0.016	-0.037 ± 0.016	-0.063 ± 0.0057	-0.0045 ± 0.0064	0.0045 ± 0.0035	0.001 ± 0.0071	-0.011 ± 0.0042	0.0035 ± 0.012	0.005 ± 0.0014
CASM3C:CD87/uPAR	-0.0105 ± 0.023	-0.025 ± 0.013	-0.0165 ± 0.012	-0.0165 ± 0.011	-0.025 ± 0.0071	0.0455 ± 0.021	-0.0065 ± 0.03	0.042 ± 0.0042	0.0075 ± 0.015	-0.0115 ± 0.015	-0.0035 ± 0.0078	-0.019 ± 0.017	-0.014 ± 0.028	-0.0285 ± 0.023	-0.0355 ± 0.023
